Values quoted from earlier work as cited in US20150246043A1, “ORAL DOSAGE FORMS FOR MODIFIED RELEASE COMPRISING RUXOLITINIB” (ratiopharm GmbH, priority 2012, published 2015).

Assays:
[1] = reported for Ruxolitinib and especially its pharmaceutically acceptable salts like the phosphate salt (WO 2008/157208)
[2] = class I = high permeability, high solubility

- aqueous solubility [1]: very high
- Biopharmaceutics Classification System class [2]: class I
SMILES: N#CC[C@H](C1CCCC1)n1cc(-c2ncnc3[nH]ccc23)cn1 [Ruxolitinib, (3R)-3-cyclopentyl-3-[4-(7H-pyrrolo[2,3-d]pyrimidin-4-yl)pyrazol-1-yl]propanenitrile]
